Test results reported in PubChem BioAssay (NCI).
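Five compound concentrations were applied to cells in 96-well plates for 48 hours; endpoints were derived by simple linear interpolation of the resulting dose-response curve. Abbreviation: GI50, concentration required for 50% inhibition of growth. TGI: total growth inhibition.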

How the values were obtained:
Experiment in all cases: NCI-60 cell line screen, 48 h; in the data active = GI50 below about 0.43 µM; inactive = the rest
[1] = test system: OVCAR-5 ovarian
[2] = test system: KM12 colon
[3] = test system: SK-MEL-5 melanoma
[4] = test system: ACHN renal
[5] = test system: HCT-15 colon
[6] = test system: SK-MEL-2 melanoma
[7] = test system: COLO 205 colon
[8] = test system: SF-268 CNS
[9] = test system: SN12C renal
[10] = test system: NCI-H522 lung

CC(C)C1CC2C(=O)N(c3ccccc3)C(=O)C2c2[nH]c3ccccc3c21 (stereo not drawn)
> 100 µM: TGI [1] | TGI [2] | TGI [3] | TGI [5] | TGI [6]
38.3 µM: TGI [4]

CN1C(c2ccccc2)CS(=O)(=O)CS1(=O)=O (stereo not drawn)
> 100 µM: TGI [1] | TGI [2] | TGI [7] | TGI [8] | TGI [9] | TGI [3] | TGI [4] | TGI [5] | TGI [6]

Nc1nc2cc3ccc(C4CC(O)C(CO)O4)cc3cc2c(=O)[nH]1 (stereo not drawn)
active: GI50 [6] 0.0927 µM
> 100 µM: TGI [1] | TGI [7] | TGI [8] | TGI [9] | TGI [3] | TGI [10] | TGI [5] | TGI [6]
inactive: GI50 [1] > 100 µM | GI50 [7] > 100 µM | GI50 [8] > 100 µM | GI50 [9] > 100 µM | GI50 [3] > 100 µM | GI50 [10] > 100 µM | GI50 [5] > 100 µM

Cc1cc2cn3c4ccc(O)cc4[nH]c(=O)c3c2cc1C
0.927 µM: TGI [7]
0.0697 µM: TGI [10]
0.231 µM: TGI [3]
2.02 µM: TGI [1]
1.18 µM: TGI [5]
0.553 µM: TGI [2]
active: GI50 [1] 0.223 µM | GI50 [2] 0.0374 µM | GI50 [7] 0.174 µM | GI50 [3] 0.0272 µM | GI50 [4] 0.0471 µM | GI50 [10] 0.0164 µM | GI50 [5] 0.032 µM | GI50 [6] 0.0411 µM
1.64 µM: TGI [4]
1.97 µM: TGI [6]

NC(=O)c1coc(C2OC(CO)C(O)C2O)n1 (stereo not drawn)
> 100 µM: TGI [1] | TGI [2] | TGI [7] | TGI [8] | TGI [9] | TGI [4] | TGI [10] | TGI [5] | TGI [6]

O/N=C1/C(=C/c2ccc(Oc3ccccc3)cc2)CCCC1C(NO)c1ccc(Oc2ccccc2)cc1 (stereo not drawn)
> 100 µM: TGI [1] | TGI [2] | TGI [8] | TGI [4] | TGI [5] | TGI [6]
35.8 µM: TGI [7]
36.7 µM: TGI [3]
96.7 µM: TGI [9]

COC(=O)CCC(=O)Nc1cc(Cl)ccc1Cl
> 100 µM: TGI [1] | TGI [2] | TGI [8] | TGI [9] | TGI [3] | TGI [4] | TGI [10] | TGI [5] | TGI [6]

CN(C)/N=C(/c1nc2ccc([N+](=O)[O-])cc2[nH]c1=O)C(O)c1ccco1 (stereo not drawn)
92.2 µM: TGI [10]
> 100 µM: TGI [1] | TGI [2] | TGI [7] | TGI [8] | TGI [9] | TGI [3] | TGI [4] | TGI [5]

CC(=O)c1ccc2c(ccc(=O)n2C)c1
> 100 µM: TGI [1] | TGI [2] | TGI [7] | TGI [8] | TGI [9] | TGI [3] | TGI [10] | TGI [5] | TGI [6]

O=C(c1ccccc1)c1oc2ccc(Br)cc2c1-c1cnn(-c2ccccc2)c1
> 100 µM: TGI [1] | TGI [2] | TGI [7] | TGI [8] | TGI [9] | TGI [4] | TGI [10] | TGI [5] | TGI [6]

O=C(CC1(O)C(=O)Nc2ccccc21)c1ccco1 (stereo not drawn)
> 100 µM: TGI [1] | TGI [7] | TGI [8] | TGI [9] | TGI [3] | TGI [4] | TGI [10] | TGI [5] | TGI [6]

O=C(/C=C/C=C/c1c(C2CC2)nc2ccccc2c1-c1ccc(F)cc1)c1cccs1
3.86 µM: TGI [4]
9.09 µM: TGI [10]
3.92 µM: TGI [5]
2.74 µM: TGI [3]
6.14 µM: TGI [6]
inactive: GI50 [2] 1.79 µM | GI50 [8] 3.35 µM | GI50 [9] 2.25 µM | GI50 [3] 1.34 µM | GI50 [4] 1.34 µM | GI50 [10] 2.52 µM | GI50 [5] 1.06 µM | GI50 [6] 1.74 µM
8.05 µM: TGI [2]
> 100 µM: TGI [8] | TGI [9]

CCCCCCCCCCCCCCCC[N+](C)(CCO)Cc1cnc[nH]1 (stereo not drawn)
26.1 µM: TGI [5]
6.31 µM: TGI [9]
inactive: GI50 [9] 1.45 µM | GI50 [4] 3.13 µM | GI50 [5] 3.03 µM
19.4 µM: TGI [4]

O=C(Nc1ccccc1O)c1ccc(CNc2ccnc(C(F)(F)F)c2)cc1
26.3 µM: TGI [8]
31.3 µM: TGI [7]
10.2 µM: TGI [3]
> 100 µM: TGI [1] | TGI [9] | TGI [4] | TGI [5]
23.3 µM: TGI [2]
inactive: GI50 [1] 16.5 µM | GI50 [2] 7.01 µM | GI50 [7] 14.7 µM | GI50 [8] 4.55 µM | GI50 [9] 4.61 µM | GI50 [3] 2.2 µM | GI50 [4] 2.59 µM | GI50 [5] 11.8 µM
